This is an account of results in patent US7476670B2, “Purine derivatives, method for preparing, pharmaceutical compositions and novel use” (Aventis Pharma S.A., priority 2003, dated 2009).

The target in one assay is CaCiv1 (Candida albicans, UniProt A0A1D8PH53). Kind of assay: Assay for inhibition of CIV-CDK (CIV1) activity. Format: biochemical. From the text:
1) Assay for Inhibition of CIV-CDK (CIV1) Activity
a) Preparation of the Reagents

The target in the next assay is T1, SRC kinase (Homo sapiens, UniProt P12931).
T1 construct: purchased Upstate Biotechnology 14-117
T1 sequence (P12931 whole entry): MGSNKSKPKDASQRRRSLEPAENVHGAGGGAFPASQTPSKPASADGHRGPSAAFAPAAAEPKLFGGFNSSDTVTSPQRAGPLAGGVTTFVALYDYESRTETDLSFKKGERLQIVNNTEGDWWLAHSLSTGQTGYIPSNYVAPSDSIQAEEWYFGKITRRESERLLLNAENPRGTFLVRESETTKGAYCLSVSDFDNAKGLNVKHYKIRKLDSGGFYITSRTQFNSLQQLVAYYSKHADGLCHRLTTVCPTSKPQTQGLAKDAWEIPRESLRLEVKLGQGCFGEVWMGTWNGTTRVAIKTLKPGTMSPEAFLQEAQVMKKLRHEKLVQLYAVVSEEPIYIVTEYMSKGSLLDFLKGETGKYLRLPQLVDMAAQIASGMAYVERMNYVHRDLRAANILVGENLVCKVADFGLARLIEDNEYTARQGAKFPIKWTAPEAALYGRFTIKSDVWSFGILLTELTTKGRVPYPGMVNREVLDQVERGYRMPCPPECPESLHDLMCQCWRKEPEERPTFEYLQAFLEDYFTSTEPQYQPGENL
Kind of assay: Assay for inhibition of SRC kinase activity. Format: biochemical. The following applies: fluorescence polarization, read-out: percentage inhibition at 20 μM. The method in brief: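 Enzyme (12 U/ml final) preincubated 5 min with inhibitor, then PolyGluTyr 4/1 (150 ng/ml) and ATP (5 μM) added in HEPES/NaOH pH 7.6 with MgCl2, MnCl2 and Na2VO4. After 20 min at ambient temperature, phosphopeptide detected by fluorescence polarization with labelled anti-phosphopeptide antibody; percent inhibition reported at 20 μM.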
(Polarisation of emitted light reports the rotation of a fluorescent probe.)

Another assay relates to Casein Kinase II. Kind of assay: Assay for inhibition of casein kinase II activity. Type of assay: biochemical. The following applies: [33P]ATP. The procedure: The inhibition of the kinase activity is determined by measuring the phosphorylation of its substrate peptide.
The assay is carried out in a final volume of 50 μl.
The incubation buffer is as follows:
• 30 mM MES pH 6.9 • 15 mM MgCl2 • 195 mM KCl • 7.25 mM DTT 5 μl of the 10-times concentrated inhibitor are added to 25 μl of incubation buffer containing 1 U/μl final concentration of the enzyme (Tebu, SE-124); 10 μl of incubation buffer containing 60 μM final concentration of peptide substrate are then added, and, finally, 10 μl of incubation buffer containing 25 μM ATP and radiolabeled ATP, [^33P]ATP (0.25 μCi), are added. The reaction is stopped after incubation for 30 minutes at ambient temperature. • Results obtained expressed as percentage inhibition at 20 μM • Example 8 93% • Example 30 97% 8) Assay for Inhibition for CAN Kinase II Activity

A further assay addresses FAK (Homo sapiens, UniProt Q05397). The assay can be described thus: Assay for inhibition of FAK activity (autophosphorylation). The following applies: fluorescence polarization, ATP 1 μM; read-out: IC50s expressed as micromolar. Type of assay: biochemical. The procedure:
The inhibition of the kinase activity is determined by fluorescence polarization, the autophosphorylation of FAK is detected by adding an anti-phosphoprotein antibody coupled to a fluorescent label.
The assay is carried out in a final volume of 30 μl; all the reagents are prepared in a buffer: • 50 mM HEPES pH 7.5 • 0.03% triton X100 • 10 mM MgCl2 • 5% Glycerol • 1 mM DTT 10 μl of the 10-times concentrated inhibitor are added to 5 μl of enzyme (100 ng final concentration), and 5 μl of incubation buffer and 10 μl of ATP (1 μM final concentration) are added.

In the next assay the test system is Candida albicans. The assay can be described thus: Minimum inhibitory concentration in liquid medium, micro method (NCCLS M27-A). Format: cell-based. The following applies: at least 80% inhibition of growth, read after 24-48 h at 37° C., RPMI 1640, read-out: MIC Candida albicans. As to the method: (§1) The assay is carried out in a final volume of 40 μl; all the reagents are prepared in a buffer: • 50 mM HEPES pH 7.5 • 0.03% triton X100 • 10 mM MgCl2 • 5% Glycerol • 1 mM DTT 10 μl of the 10-times concentrated inhibitor are added to 5 μl of enzyme (75 ng final concentration), and 5 μl of peptide (1 μM final concentration), then 2.5 μl of incubation buffer containing 40 μM ATP and 2.5 μl of radiolabeled ATP, [^33P]ATP (500 nCi), are added. After incubation for 15 minutes at ambient temperature, 10 μl of incubation buffer containing 192 nM of substrate. […] Reference method for broth dilution antifungal susceptibility testing of yeasts. Approved Standard M27-A. NCCLS, Villanova, Pa.); the minimum concentration with which a visible decrease is observed in the cloudiness of the cell growth (at least 80% compared to a control without product) is the Minimum Inhibitory Concentration (MIC) of the antifungal agent with respect to the strain tested.
(§2) RPMI 1640 medium (liquid) without L-glutamine is supplemented with L-glutamine (0.3 g/l or 10.5 ml of a solution at 200 mM) and buffered with 34.54 g/l (0.165 M) of morpholinepropanesulfonic acid (MOPS). The medium is sterilized by filtration. 100 μl of RPMI medium are distributed into each well of a 96-well plate. The appropriate volume. of the antifungal solution is distributed in the first column of the microplate and supplemented with 200 μl of medium. Doubling dilutions are made so as to establish a range of 11 concentrations in each line of the microplate. The 12th well of each row will serve as a growth control. The cell suspension is prepared from a culture (liquid or agar) or from a frozen vial, and is diluted in RPMI medium so as to obtain a cell suspension at 5×10^3−2×10^4 cells/ml. 100 μl of the cell suspension are distributed in the microplate. For all species of Candida, the MIC is read after 24-48 h, and for Cryptococcus and Aspergillus after 48-72 h, of incubation at 37° C. in a normal atmosphere. The MIC is read by visual reading, determining the well which contains the lowest dose of antifungal agent which causes at least 80% inhibition of the growth of the fungus.

For another assay, the system named is Candida glabrata. The assay is described as above. Type of assay: cell-based. The following applies: Nakaseomyces glabratus; at least 80% inhibition of growth, read after 24-48 h at 37° C., RPMI 1640; read-out: MIC Candida glabrata. As to the method: as §1, §2

Sequence of CaCiv1 (A0A1D8PH53 entry or part of it): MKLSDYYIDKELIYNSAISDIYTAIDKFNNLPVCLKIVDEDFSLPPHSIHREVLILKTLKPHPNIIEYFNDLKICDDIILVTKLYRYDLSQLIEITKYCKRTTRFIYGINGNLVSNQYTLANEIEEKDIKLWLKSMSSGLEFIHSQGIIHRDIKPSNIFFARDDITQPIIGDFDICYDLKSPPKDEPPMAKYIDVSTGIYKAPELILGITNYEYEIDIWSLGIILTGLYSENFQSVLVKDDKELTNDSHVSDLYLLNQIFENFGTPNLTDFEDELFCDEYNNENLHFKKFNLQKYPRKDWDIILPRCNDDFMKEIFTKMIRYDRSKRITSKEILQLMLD
Sequence of FAK (Q05397 whole entry, species assumed): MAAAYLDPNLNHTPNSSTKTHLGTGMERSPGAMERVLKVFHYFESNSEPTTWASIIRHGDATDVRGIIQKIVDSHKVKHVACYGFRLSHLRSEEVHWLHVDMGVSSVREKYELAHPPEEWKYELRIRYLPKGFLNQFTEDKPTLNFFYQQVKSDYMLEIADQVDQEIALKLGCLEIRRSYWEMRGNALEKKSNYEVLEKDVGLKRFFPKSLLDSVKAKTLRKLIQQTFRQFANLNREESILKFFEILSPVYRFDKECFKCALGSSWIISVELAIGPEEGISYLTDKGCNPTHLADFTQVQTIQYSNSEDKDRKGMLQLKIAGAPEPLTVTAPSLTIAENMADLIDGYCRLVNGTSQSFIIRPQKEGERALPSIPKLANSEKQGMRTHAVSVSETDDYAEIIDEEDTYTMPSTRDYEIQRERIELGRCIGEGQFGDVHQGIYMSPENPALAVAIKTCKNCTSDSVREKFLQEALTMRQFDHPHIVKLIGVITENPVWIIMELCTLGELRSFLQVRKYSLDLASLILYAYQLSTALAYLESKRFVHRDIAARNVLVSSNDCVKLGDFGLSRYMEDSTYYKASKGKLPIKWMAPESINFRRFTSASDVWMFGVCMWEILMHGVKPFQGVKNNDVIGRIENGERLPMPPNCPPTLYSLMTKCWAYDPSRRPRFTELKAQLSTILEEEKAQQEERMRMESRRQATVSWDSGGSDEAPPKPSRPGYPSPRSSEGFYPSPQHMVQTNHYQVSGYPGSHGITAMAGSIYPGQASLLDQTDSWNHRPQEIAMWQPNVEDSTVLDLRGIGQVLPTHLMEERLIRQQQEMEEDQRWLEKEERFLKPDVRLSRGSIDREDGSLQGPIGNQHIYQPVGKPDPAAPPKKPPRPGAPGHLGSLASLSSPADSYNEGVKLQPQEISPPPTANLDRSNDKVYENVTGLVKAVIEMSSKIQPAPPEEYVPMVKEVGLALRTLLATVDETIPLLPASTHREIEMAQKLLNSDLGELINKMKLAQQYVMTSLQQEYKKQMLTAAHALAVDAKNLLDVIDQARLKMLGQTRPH

For `Cl.N[C@H]1CC[C@H](Nc2nc(-n3cnc4cc(Cl)c(Cl)cc43)c3nc[nH]c3n2)CC1` [Example 8, Trans-N-[6-(5,6-dichloro-1H-benzimidazol-1-yl)-9H-purin-2-yl]-1,4-cyclohexanediamine hydrochloride], the IC50 against CaCiv1 is 1300 nM; at FAK, 2 µM. In addition, at SRC kinase, the inhibition – broadly, the share of the control response that was lost under treatment – at 20 µM turned out to be 98%. The “percentage inhibition at 20 μM” value in the assay with Casein Kinase II came to 93%. For the same molecule, the MIC with Candida albicans and in the assay with Candida glabrata was 16 µg/mL each time.
For `Cl.Cl.N[C@H]1CC[C@H](Nc2nc(N3CCc4cc([N+](=O)[O-])ccc43)c3nc[nH]c3n2)CC1` [Example 30, Trans-N-[6-(2,3-dihydro-5-nitro-1H-indol-1-yl)-9H-purin-2-yl]-1,4-cyclohexanediamine dihydrochloride], the IC50 was 100 nM against CaCiv1 and 1 µM at FAK. Besides, the inhibition at 20 µM at SRC kinase was 99%. For the same molecule, the “percentage inhibition at 20 μM” value with Casein Kinase II worked out at 97%. Moreover, the MIC (as a rule, the smallest concentration in the dilution series that meets the test's criterion for growth inhibition) with Candida albicans was found to be 32 µg/mL; in the assay with Candida glabrata, 64 µg/mL.
